The test system of assay [1] is HCT-15. In words: Antiproliferative activity against human colon cancer HCT-15 cell line. It is filed as functional, cell-based.
Assay [2] has as its system SW-620. The assay is described as follows: Antiproliferative activity against colon cancer SW-620 cell line. It is filed as functional, cell-based. As to conditions: Homo sapiens.
For assay [3], the system named is SiHa. The assay is described as follows: Antiproliferative activity against human SIHA cell line. Type of assay: functional, cell-based. The settings on record: Homo sapiens, SiHa.
For assay [4], the system named is A549. The assay is described as follows: Antiproliferative activity against human cancer A-549 cell line. Type of assay: functional, cell-based. The settings on record: Homo sapiens, A549.
The subject of assay [5] is DU-145. In words: Antiproliferative activity against human cancer DU-145 cell line. It is filed as functional, cell-based. The settings on record: Homo sapiens, DU-145.
Assay [6] concerns HEp-2. In words: Antiproliferative activity against human cancer Hep-2 cell line. Type of assay: functional, cell-based.
Assay [7] concerns HOP-62. The assay is described as follows: Antiproliferative activity against human cancer HOP-62 cell line. Type of assay: functional, cell-based. The settings on record: Homo sapiens, HOP-62.
Assay [8] relates to SNB-78. In words: Antiproliferative activity against human cancer SNB-78 cell line. It is filed as functional, cell-based. As to conditions: Homo sapiens, SNB-78.
Assay [9] deals with PC-3. In words: Antiproliferative activity against prostate cancer PC-3 cell line. It is filed as functional, cell-based, Homo sapiens. The settings on record: Homo sapiens, PC-3.
Assay [10] concerns SK-OV-3. In words: Antiproliferative activity against human cancer SKOV-3 cell line. Type of assay: functional, cell-based.
Assay [11] has as its system HT-29. In words: Antiproliferative activity against Colon cancer HT-29 cell line. Type of assay: functional, cell-based, Homo sapiens. As to conditions: Homo sapiens, HT-29.
Assay [12] deals with OVCAR-5. The assay is described as follows: Antiproliferative activity against human cancer OVCAR-5 cell line. Type of assay: functional, cell-based. The settings on record: Homo sapiens, OVCAR-5.

The structures appear in SMILES notation.

`COc1cc(C(=O)/C=C/c2ccccc2)cc(OC)c1OC`: the concentration for half-maximal inhibition (IC50) (in general, the point on the concentration scale where inhibition reaches its midpoint) in assay [1] amounted to 8.77 µM; in assay [2], 16 µM; in [3] it was 36.5 µM; in assay [4], 21.3 µM; in [5], 25.4 µM; in [6], 7.55 µM. Moreover, the IC50 was 20.5 µM in assay [7]; 22.8 µM in [8]; 41.1 µM in assay [9]; 21 µM in [10]; 14.4 µM in assay [11]; 8.9 µM in assay [12].

Values taken from ChEMBL document CHEMBL1139638, “Synthesis and biological evaluation of chalcones and their derived pyrazoles as potential cytotoxic agents” (Bioorg Med Chem Lett, 2005).
